Values quoted from earlier work in patent US20260248129A1, “SPRAYABLE SUBSTANCES FOR PHOTOSYNTHESIS ENHANCEMENT” (Sensei Ag Holdings, Inc., priority 2023, published 2026).
Values after ≈ are worked out from the molar mass of the structure shown. Where two headings read alike, the source gives them in different places.

Legend:
[1] = not given; remark: listed apart in the source
[2] = ethanol, methanol, hexane, ether, and a variety of other solvents

water solubility (water) [mg/100 mL] | Compound | solubility in water (in words) (water) | water solubility (water at 25° C.) [mg/L] | stability under light (in words) [1] | solubility in organic solvents (in words) [2]
– | c1ccc2cc3ccccc3cc2c1 [anthracene, Anthracene] | slightly soluble | 0.044 (≈ 0.247 µM) | does eventually degrade under light | very soluble
0.17 | O=c1ccc2ccccc2o1 [coumarin, Coumarin] | – | – | – | –
